Assay results published in ChEMBL document CHEMBL3301464, “MMV Malaria Box anti-babesial screening”.

Assays:
[1] = (§1) MMV: Anti-babesial activity assay. Parasite pRBCs at 1% parasitemia were cultivated in 100 ul with 96-well plates at 2.5% and 5% hematocrits. The parasites were cultivated in triplicate for 4 days without replacement of the medium for each concentration of the compound.; type: functional, Babesia bovis
[2] = as §1; type: functional, Babesia caballi
[3] = as §1; type: functional, Babesia equi
[4] = as §1; type: functional, Babesia bigemina

Compound	IC50 [1]	IC50 [2]	IC50 [3]	IC50 [4]
CCN(CC)CCn1c(=N)n(CC(O)c2ccc(Cl)c(Cl)c2)c2ccccc21 (centres undefined)	10.1 µM	5.62 µM	3.91 µM	17.2 µM
CCN1CCN(c2cc(C)c3cc(NC(=O)c4ccc(OC)c(OC)c4)ccc3n2)CC1	6.69 µM	5.93 µM	0.33 µM	7.92 µM
Cc1ccc(C)c(-c2csc(Nc3ccc(C)c(C)c3)n2)c1	0.06 µM	0.71 µM	0.14 µM	8.05 µM
Cc1ccc(Cn2c(N3CCC(C(=O)NCc4cccs4)CC3)nc3ccccc32)cc1	17.7 µM	> 25 µM	12.9 µM	10 µM
O=C(Nc1ccc(-c2nc3cc4ccccc4cc3[nH]2)cc1)c1cccc(Br)c1	7 µM	9.03 µM	10 µM	4.91 µM
CCOC(=O)c1cnc2ccc(CC)cc2c1O	> 25 µM	13.5 µM	14.9 µM	17.5 µM
COc1ccc(-c2nonc2NC(=O)c2cccc(C)c2)cc1OC	0.078 µM	10 µM	5.64 µM	0.69 µM
Cc1cc(Nc2ccc(C)c(Cl)c2)n2nc(C(F)(F)F)nc2n1	15 µM	0.69 µM	> 25 µM	14.8 µM
Cc1cc(N(C)C)nc(Nc2ccc(NC(=O)Nc3ccccc3)cc2)n1	0.078 µM	14.6 µM	12.1 µM	0.06 µM
Cc1ccc2cc3c(N)c4c(C)ccc(C)c4nc3nc2c1	2.63 µM	7.26 µM	4.52 µM	4.27 µM
CCn1c2c(c(=N)c3c1CCC3)CCCC2	0.052 µM	0.44 µM	15 µM	0.082 µM
COc1cccc(C(=O)NC(c2ccc(C)cc2)c2cc(Cl)c3cccnc3c2O)c1 (centres undefined)	4.68 µM	16.1 µM	3.73 µM	1.4 µM
CCCN(CCC)CCCNC(=O)c1cc2c(-c3ccc(OC)c(OC)c3)nn(C)c2s1	11 µM	5.5 µM	19.4 µM	3.32 µM
CCOc1cccc2sc(N(Cc3cccnc3)C(=O)C3CCCCC3)nc12	25 µM	0.076 µM	4.77 µM	21.6 µM
O=C(Nc1ccsc1C(=O)NC1CCCCC1)c1ccc(F)cc1	0.08 µM	17.7 µM	5.64 µM	0.1 µM
CCN(CC)S(=O)(=O)c1ccc(-c2csc(Nc3ccc(C)c(C)c3)n2)cc1	11.9 µM	0.08 µM	14.2 µM	10 µM
COc1ccc(N2CCN(C(CNC(=O)C3CCCCC3)c3ccc4c(c3)OCO4)CC2)cc1 (centres undefined)	24.9 µM	7.67 µM	13 µM	7.67 µM
Cc1ccc(-c2cc(C(=O)Nc3ccc(S(=O)(=O)N4CCCCC4)cc3)[nH]n2)c(O)c1	> 25 µM	10 µM	8.25 µM	2.45 µM
CC1(c2ccccc2)Nc2ccccc2-c2nc3ccccc3n21 (centres undefined)	13.8 µM	0.08 µM	1 µM	10 µM
CCOC(=O)c1cnc2ccc(OC)cc2c1Nc1ccc(N2CCN(C)CC2)cc1	0.061 µM	8.25 µM	10 µM	1 µM
CC(C)(C)C(=O)Nc1ccc(C(=O)Nc2cccc(-c3nc4ccccc4[nH]3)c2)cc1	0.32 µM	2.19 µM	5.19 µM	0.08 µM

Compound	IC50 [1]	IC50 [2]	IC50 [3]	IC50 [4]
CCOc1c(Cl)cc(CNC(C)C(O)c2ccccc2)cc1OC (centres undefined)	1.89 µM	12 µM	6.69 µM	7.31 µM
COc1ccccc1CNC(=O)CCn1c(=O)[nH]c2ccsc2c1=O	8.93 µM	2.05 µM	15.2 µM	0.68 µM
O=C(Nc1ccc(CN2CCOCC2)cc1)c1ccc(-c2ccc(Br)cc2)o1	7.67 µM	5.64 µM	6.8 µM	11.5 µM
COc1ccc(-c2cc3c(nn2)-c2ccccc2C3=O)cc1	0.34 µM	14.8 µM	9.18 µM	10 µM
COc1ccc(C(=O)NC(c2ccc(Cl)cc2Cl)c2cc(Cl)c3cccnc3c2O)cc1 (centres undefined)	0.86 µM	4.68 µM	1.39 µM	3.05 µM
CCOc1ccc(N2C(N)=NC(N)=NC2(C)C)cc1	15.2 µM	2.95 µM	14 µM	5.9 µM
FC(F)(F)c1cccc(Nc2nc3ccccc3nc2Nc2cccc(C(F)(F)F)c2)c1	0.14 µM	4.27 µM	4.13 µM	3.45 µM
CC(=O)c1ccc(NC(=O)CSc2nc(-c3ccccc3Cl)ns2)cc1	0.86 µM	3.34 µM	0.65 µM	10 µM
COc1ccc(C(=O)Nc2nonc2-c2ccc(OC)c(OC)c2)cc1Cl	> 25 µM	15.9 µM	20.4 µM	19.3 µM
c1ccc2c(NCCc3c[nH]c4ccccc34)c3ccccc3nc2c1	0.71 µM	0.21 µM	1.39 µM	1.03 µM
CCOC(=O)c1cnc2ccc(Cl)cc2c1NCCCN(C)C	0.42 µM	0.11 µM	3.86 µM	5.51 µM
COC(=O)c1ccc(C2C3=C(O)CC(c4ccc(F)cc4)CC3=Nc3ccccc3N2C(=O)c2ccccc2)cc1 (centres undefined)	0.063 µM	6.86 µM	10.4 µM	0.086 µM
COc1cccc(C2(C)Nc3ccccc3-c3nc4ccccc4n32)c1 (centres undefined)	13.9 µM	1 µM	10 µM	25 µM
Cc1ccc(CN2CCC(C(=O)Nc3ccc(-c4cc5ccccc5[nH]4)cc3)CC2)o1	5.5 µM	4.37 µM	0.33 µM	3.61 µM
CCCCc1c(CCC)c(=N)c2ccccc2n1C	0.087 µM	1 µM	15.2 µM	0.059 µM
CCCCCCc1cc2cc(-c3nc4ccccc4[nH]3)c(=Nc3ccccc3C)oc2cc1O	19.7 µM	25 µM	> 25 µM	17.2 µM
Oc1ccc(Cl)cc1CNc1nc2ccccc2[nH]1	5.38 µM	8.03 µM	4.77 µM	5.06 µM
OC(CNC1CCCCC1)Cn1c2ccccc2c2ccccc21 (centres undefined)	17.3 µM	13.8 µM	17.3 µM	17.3 µM
CCCCc1ccc(NS(=O)(=O)c2cc3c4c(c2)CCN4C(=O)CC3)cc1	25 µM	0.07 µM	0.57 µM	12.5 µM
Cc1cc(Nc2ccc(OCc3ccccc3)cc2)nc2cc(O)ccc12	0.17 µM	4.91 µM	6.31 µM	3.45 µM
CCCCCCC(O)(c1ccc(F)cc1)C(CN1CCOCC1)c1ccccc1 (centres undefined)	2.63 µM	0.29 µM	10 µM	9.87 µM

Compound	IC50 [1]	IC50 [2]	IC50 [3]	IC50 [4]
Cc1ccc(CSCc2ccc(C(=O)NC3CC3)o2)cc1	8.31 µM	12.9 µM	4.48 µM	15.2 µM
Oc1ccccc1CNCC12CC3CC(CC(C3)C1)C2	14.7 µM	10 µM	13.1 µM	15.9 µM
CC(C)(C)CC(C)(C)NCC(O)COc1ccc2c(c1)CCC2 (centres undefined)	10 µM	6.81 µM	2.45 µM	0.6 µM
CCOc1ccc(-c2nc(NC(=O)c3cccc(S(C)(=O)=O)c3)sc2C)cc1	4.48 µM	11.9 µM	17.7 µM	15 µM
COc1ccc(Nc2nc(N/N=C/c3ccc(O)cc3)nc(Nc3ccc([N+](=O)[O-])cc3)n2)cc1	0.081 µM	5.09 µM	15.9 µM	0.05 µM
O=C1c2ccc3c4c(ccc(c24)C(=O)N1CCCCO)C(=O)N(CCCCO)C3=O	0.6 µM	0.53 µM	0.67 µM	3.34 µM
O=c1nc(C=Cc2ccc(Br)cc2)oc2ccccc12	15.3 µM	13.6 µM	14.3 µM	10 µM
Cc1cc(NC(=O)c2cccc(C(F)(F)F)c2)n(-c2nc(-c3ccc4c(c3)OCO4)cs2)n1	18 µM	0.08 µM	12.3 µM	8.83 µM
CCCc1cc(O)c2c3c(c(=O)oc2c1)CN(C)CC3	23.9 µM	7.87 µM	18.5 µM	16.4 µM
O=C1CC(O)(C(F)(F)C(F)(F)F)Oc2ccccc21 (centres undefined)	> 25 µM	0.8 µM	0.65 µM	16.3 µM
O=C(CCc1ccccc1)c1ccccc1OCC(O)CN1CCCCC1 (centres undefined)	4.52 µM	7.26 µM	10.7 µM	5.69 µM
Cn1c(=O)n(C)c2cc(CNCCNc3ccnc4cc(Cl)ccc34)ccc21	0.071 µM	0.489 µM	0.1 µM	0.081 µM
COc1ccc(Nc2nc(NCc3ccccc3)c3ccccc3n2)cc1	0.06 µM	3.7 µM	4.77 µM	2.16 µM
Cc1ccccc1OCCSc1nc2ccc(NC(=O)c3cccs3)cc2s1	7.81 µM	5.51 µM	22.3 µM	5.09 µM
COc1ccc(CCNC(=O)c2cc(S(=O)(=O)N3CC(C)CC(C)C3)ccc2Sc2ccc(F)cc2)cc1OC (centres undefined)	1 µM	0.13 µM	12.7 µM	0.086 µM
c1ccc(/C2=N/c3ccccc3/N=C(/c3ccccc3)c3ccccc32)cc1	17.7 µM	4.91 µM	15.2 µM	10 µM
CN1CCN(c2ncnc3c2[nH]c2ccc(Cl)cc23)CC1	10 µM	6.4 µM	8.25 µM	8.54 µM
CC(O)(c1ccc(Cl)cc1)C(CN1CCCCC1)c1ccccc1 (centres undefined)	13.3 µM	0.08 µM	7.09 µM	0.87 µM
CC(C)(C)c1ccc(C(=O)Nc2nc3ccccc3s2)cc1	7 µM	1 µM	10 µM	12.9 µM
